Measurements taken from patent US11697833B2, “Antimicrobial susceptibility testing device and method for use with portable electronic device” (THE REGENTS OF THE UNIVERSITY OF CALIFORNIA, priority 2016, dated 2023).

Tested on: Klebsiella pneumoniae
Experiment: Broth microdilution antimicrobial susceptibility testing (AST) of patient isolates, 96-well plate read for turbidity
Assay type: cell-based
Conditions: clinical patient isolate plates, 24 hours at 37° C, plate ID 1 (AM), 5 (A/S), 8 (MPM); for Diagnostician Decision (drug susceptibility interpretation): expert diagnostician visual reading (gold standard); for Automated System Decision (drug susceptibility interpretation): mobile phone-based AST plate reader, misdiagnosed cases
Source text: To determine whether a particular well 22 contains sufficient turbidity or not, a threshold-based approach is used to determine the cut-off transmittance value for each well 22. As the turbidity increases, the light transmittance through the well decreases. This operation is illustrated as operation 230 in FIGS. 4 and 5. In particular, thresholding is applied to average normalized well intensities of sample-containing wells to determine whether a particular well 22 is classified as “turbid” or “not turbid.” To choose an accurate threshold value for each well 22, the normalized transmittance values of wells 22 with no turbidity are extracted from a training set of blank reference plates 20 (i.e., plates with drugs but no microbes). For example, sixty (60) such plates that are blanks can be imaged to determine the mean transmittance at each well 22. […] In one embodiment, from this set of normalized transmittance values from wells 22 with no turbidity, a threshold of two times the standard deviation below the mean of that particular well 22 is used to determine whether a given test or sample-containing well 22 is statistically likely to have microbial growth represented by turbidity. Those wells 22 that have an averaged, normalized intensity level that is lower than two times the standard deviation below the mean “not turbid” value are classified as “turbid” while wells 22 that don't meet that criteria are classified as “not turbid.” Of course, other measures may be used for defining the cutoff or threshold. For example, fractional standard deviation may also be used for a cutoff or threshold. In addition, the threshold could also include a numerical cutoff of intensity or other multiple of the standard deviation.
With reference to FIG. 3, after the wells 22 are classified as “turbid” or “not turbid,” the software 112 generates MIC values and susceptibility characterizations for the drug(s) on the AST plate 20. For a given type of AST plate 20 (i.e., Gram-negative or Gram-positive), the MIC value for each drug is determined by finding the lowest concentration of drug in a drug-specific set of wells 22 that contains no turbidity. More specifically, the MIC value is based on the adjacent, well 22 that is classified as not turbid as this well represents the lowest concentration of antibiotic that prevented bacterial growth (i.e. the MIC). Depending on the selected microbe of interest, drug susceptibility interpretations are automatically made by the software 112 based on the MIC for each drug. FIG. 7 illustrates the layout of a map or table 114 for the AST plate 20 with susceptibility characterizations for each drug at different concentration levels. The map or table 114 with susceptibility characterizations for each drug at different concentration levels may be stored in a database (e.g., database 109 or other local storage device) as a look-up table or the like. In some embodiments, the map or table 114 for each different bacterium may be stored in the database 109 or local storage device. For example, in looking at FIG. 7 with the example of the drug ampicillin (AM), various concentrations (μg/ml) of this drug is present within wells B1, C1, D1, E1 along with a growth medium. If wells B1 and C1 were classified as turbid while wells D1 and E1 were classified as not turbid, the MIC reading would be 16 μg/ml (e.g., looking at concentration in well D1). Likewise, the susceptibility characterization would be classified as “indeterminate” using the map or table 114. […]

| Compound | Diagnostician Decision (drug susceptibility interpretation) | Automated System Decision (drug susceptibility interpretation) |
| --- | --- | --- |
| C[C@@H](O)[C@H]1C(=O)N2C(C(=O)O)=C(S[C@@H]3CN[C@H](C(=O)N(C)C)C3)[C@H](C)[C@H]12 [MPM, Meropenem] | Susceptible | Resistant |
| Ampicillin-Sulbactam [A/S] | Indeterminate | Resistant |
| CC1(C)S[C@@H]2[C@H](NC(=O)[C@H](N)c3ccccc3)C(=O)N2[C@H]1C(=O)O [AM, Ampicillin] | Indeterminate | Resistant |
